Measurements as given in US12545668B2, “Cyclic amine derivative as agent for promoting advillin function, and novel cyclic amine derivative and pharmaceutical use thereof” (Toray Industries, Inc., priority 2018, dated 2026).

The compounds below were run on F11 cells (rat dorsal root ganglion neuron cell line) (assay: Effect of decreasing intracellular actin filaments in F11 cells with oxaliplatin-induced axonal injury (phalloidin staining)). Settings: F-11 rat/mouse fusion cell line, F11, 120 h, compound 10 μM with oxaliplatin 15 μM, 5 days; compared to oxaliplatin alone treated group; average of five samples; read-out: Decreasing Rate of Intracellular Actin Filament (%).
Assay type: cell-based
Text: The effect of the cyclic amine derivative (I) or a pharmacologically acceptable salt thereof on the amount of intracellular actin filaments in F11 cells (rat dorsal root ganglion neuron cell line) was examined.
As test compounds, the compounds of Examples 1, 2, 3, 4, 5, 6, 7, 8, and 9 were used.
As compounds of comparative examples, 1-(4-(dimethylamino)piperidin-1-yl)-3-(1-ethyl-1H-imidazol-2-yl)-3-hydroxypropan-1-one (hereinafter, the compound of Comparative Example 1), 1-(4-(dimethylamino)piperidin-1-yl)-3-hydroxy-3-(1-(2,2,2-trifluoroethyl)-1H-imidazol-2-yl)propan-1-one (hereinafter, the compound of Comparative Example 2), 1-((R)-3-(dimethylamino)pyrrolidin-1-yl)-3-hydroxy-3-(1-methyl-1H-imidazol-2-yl)propan-1-one (hereinafter, the compound of Comparative Example 3), and 1-((R)-[…]-3-hydroxy-3-(1-methyl-1H-imidazol-2-yl)propan-1-one (hereinafter, the compound of Comparative Example 4) shown in Table 4 were used. The compounds of Comparative Examples 1, 2, 3, and 4 were synthesized in accordance with methods described in International Publication No. WO2016/136944.
For peeling the F11 cells off from a culture flask, 0.25% Trypsin/EDTA (manufactured by Thermo Fisher Scientific K.K.) was added to the cells, followed by incubation at room temperature for several minutes. Thereafter, 10% fetal bovine serum-containing DMEM medium (manufactured by Thermo Fisher Scientific K.K.) was added thereto for suspension, and the resultant centrifuged at 1,500 rpm for 1 minute. After removing the resultant centrifugal supernatant, 0.5% fetal bovine serum-containing DMEM medium was added thereto for suspending cells therein, and the resultant seeded in a poly-D-lysine-coated 96 well plate (manufactured by BD Biosciences) coated with laminin (2 μg/cm^2, manufactured by Sigma Aldrich) to be cultured at 37° C. under an environment of 5% CO2. Two hours after seeding the cells, N,N-dibutyladenosine 3′,5′-phosphate (final concentration 1 mM, manufactured by Sigma Aldrich) and recombinant rat GDNF (final concentration 50 ng/mL, manufactured by PeproTech) were added thereto to culture the cells at 37° C. under an environment of 5% CO2 for 7 days for differentiation.
Seven days after starting the culture, the medium was exchanged with 0.5% fetal bovine serum-containing DMEM medium containing oxaliplatin (final concentration 15 μM), and the resultant cultured for 5 days to induce axonal injury. Each of the compounds of Examples and Comparative Examples was caused to be contained in the medium (final concentration 10 μM) for treatment in the same manner as oxaliplatin.
Five days after treatment with oxaliplatin and each of the compounds, the resultant cells were washed with PBS(−) three times, a 4% paraformaldehyde-phosphate buffer (manufactured by Wako Pure Chemical Industries Ltd.) was added thereto, and the resultant allowed to stand still at room temperature for 10 minutes to fix the cells. Acti-stain 670 phalloidin (manufactured by Cytoskeleton Inc.) was added thereto, and the resultant incubated at room temperature for 30 minutes to stain actin filaments. An image of the cells was acquired using IN Cell Analyzer 2200 (manufactured by GE Healthcare), and the image analyzed using IN Cell Investigator Developer Toolbox. The amount of intracellular actin filaments was indicated by the amount of fluorescence (density) of fluorescent-labeled phalloidin binding to the actin filaments.
In a group treated with oxaliplatin alone (hereinafter, the oxaliplatin alone treated group), the amount of intracellular actin filaments increased by 5% compared to that in a group not treated with oxaliplatin. […] A decreasing rate of intracellular actin filaments, caused by each compound compared to the amount of intracellular actin filaments of the oxaliplatin alone treated group was calculated. […]

**Q.** For `CN(C)C1CCN(C(=O)CC(O)c2nccn2CC(F)(F)F)CC1` (stereo not shown) [Comparative Example 2, 1-(4-(dimethylamino)piperidin-1-yl)-3-hydroxy-3-(1-(2,2,2-trifluoroethyl)-1H-imidazol-2-yl)propan-1-one, reference compound], which inhibition at 10 µM is on record?
**A.** ≤ 5%

**Q.** For `CN(C)[C@@H]1CCCN(C(=O)CC(O)c2nccn2C)C1` (stereo partly shown) [Comparative Example 4, reference compound], which inhibition at 10 µM is on record?
**A.** ≤ 5%

**Q.** `Cn1ccnc1C(O)CC(=O)N1CCC(N2CCOCC2)CC1` (stereo not shown) [Example 1, 3-hydroxy-3-(1-methyl-1H-imidazol-2-yl)-1-(4-morpholinopiperidin-1-yl)propan-1-one] was tested. Which inhibition at 10 µM did it give?
**A.** ≥ 5%

**Q.** For `CC(C)n1ccnc1C(O)CC(=O)N1CCC(N(C)C)CC1` (stereo not shown) [Example 3, 1-(4-(dimethylamino)piperidin-1-yl)-3-(1-isopropyl-1H-imidazol-2-yl)-3-hydroxypropan-1-one], which inhibition at 10 µM is on record?
**A.** ≥ 5%

**Q.** How did the inhibition at 10 µM turn out when `CN(C)C1CCN(C(=O)CC(O)c2ncc(Cl)n2C)CC1` (stereo not shown) [Example 4, 3-(5-chloro-1-methyl-1H-imidazol-2-yl)-1-(4-(dimethylamino)piperidin-1-yl)-3-hydroxypropan-1-one] was run?
**A.** ≥ 5%

**Q.** How did the inhibition at 10 µM turn out when `COCCn1ccnc1C(O)CC(=O)N1CCC(N(C)C)CC1` (stereo not shown) [Example 5, 1-(4-(dimethylamino)piperidin-1-yl)-3-(1-(2-methoxyethyl)-1H-imidazol-2-yl)-3-hydroxypropan-1-one] was run?
**A.** ≥ 5%

**Q.** How did the inhibition at 10 µM turn out when `CN(C)C1CCN(C(=O)CC(O)c2nccn2CCC(F)(F)F)CC1` (stereo not shown) [Example 6, 1-(4-(dimethylamino)piperidin-1-yl)-3-(1-(3,3,3-trifluoropropyl)-1H-imidazol-2-yl)-3-hydroxypropan-1-one] was run?
**A.** ≥ 5%

**Q.** With `CN1CCN(C2CCN(C(=O)CC(O)c3nccn3C)CC2)CC1` (stereo not shown) [Example 8, 3-hydroxy-3-(1-methyl-1H-imidazol-2-yl)-1-(4-(4-methylpiperazin-1-yl)piperidin-1-yl)propan-1-one] as the compound, how does the inhibition at 10 µM read?
**A.** ≥ 5%

Same assay, conditions: oxaliplatin alone 15 μM, 5 days; p<0.05

**Q.** `O=C1[O][Pt]2([NH][C@@H]3CCCC[C@H]3[NH]2)[O]C1=O` [oxaliplatin, reference compound] was tested. Which “increase of the amount of intracellular actin filaments compared to a group not treated with oxaliplatin” value did it give?
**A.** 5%

The compounds below were run on primary cultured cells of rat dorsal root ganglion (assay: Axon (neurite) extension in primary cultured cells of rat dorsal root ganglion with oxaliplatin-induced axonal injury). Settings: oxaliplatin alone 3 μM, 7 days; p<0.05.
Assay type: cell-based
Text: The effect of the cyclic amine derivative (I) or a pharmacologically acceptable salt thereof on neurite extension in primary cultured cells of rat dorsal root ganglion was examined.
Male SD rats (manufactured by Charles River Laboratories Japan, Inc.) of 4 to 7 weeks old were used. Each rat was anesthetized by intraperitoneally administering urethane. After confirming that the rat was anesthetized, the rat was rapidly euthanized by exsanguination from the abdominal aorta. After incision of the dorsal part, the spinal column was excised and cooled on ice. The dorsal side of the spinal column was cut off, and the spinal cord was removed from the ventral side of the spinal column to expose the dorsal root ganglia on the ventral side of the spinal column. The dorsal root ganglia (L3 to 6, right and left) were excised with tweezers, and dipped in ice-cold Leibovitz's L-15 medium (manufactured by Thermo Fisher Scientific), and the bundles of nerve fibers were removed under a stereoscopic microscope. The dorsal root ganglia from which the bundles of nerve fibers had been removed were made fine slits with ophthalmic scissors to be used as dorsal root ganglion pieces.
The dorsal root ganglion pieces were dipped in about 3 mL of a solution of collagenase A (manufactured by Roche Molecular Systems, Inc.), followed by incubation at 37° C. for 20 minutes. After the incubation, the resultant was centrifuged at 200×g at 25° C. for 5 minutes to remove a collagenase A solution corresponding to the supernatant. About 1 mL of a solution of trypsin was added thereto, followed by incubation at 37° C. for 5 minutes. Subsequently, about 3 mL of DMEM (manufactured by Thermo Fisher Scientific K.K.) containing 10% fetal bovine serum was added to the resultant, the resultant centrifuged at 200×g at room temperature for 5 minutes, and then the supernatant removed. […]

**Q.** Which “length of a neurite compared to the non-treated group” value does the source give for `O=C1[O][Pt]2([NH][C@@H]3CCCC[C@H]3[NH]2)[O]C1=O` [oxaliplatin, reference compound] here?
**A.** significantly reduced
